From patent publication US20040067547A1, “Rapid method for detecting micro-organisms and evaluating antimicrobial activity” (priority 1998, published 2004)

Test system: Streptococcus pneumoniae
Assay: Antibiotic sensitivity testing by zeta potential measurement (ZETASIZER 2000)
Format: cell-based
Conditions: about 10^5 cells in growth medium with penicillin at 0.01 g/ml, incubated at 37° C. for 3 h; about 0 mV = dead cells, untreated −27.9 mV
Experimental: The following Example illustrates a particular embodiment of the invention: Streptococcus pneumoniae was grown for about 4 h in laked horse blood medium. Aliqouts, representing about 10^5 cells, were transferred to two tubes containing growth medium: one of these also contained penicillin at 0.01 g/ml. The zeta potential of both samples was measured using a ZETASIZER 2000 (RTM) from Malvern Instruments. The tubes were incubated at 37° C. for 3 h, and the zeta potential of each measured again. […] There is a clear difference in these profiles. In both Figures, the peak at 0 mV represents dead cells. The zeta potential of all dead micro-organisms is close to 0 mV: without wishing to be bound by a particular theory, it is believed that these changes are brought about by the vacuolation of the cells, resulting in the zeta potential decaying to about 0 mv. The other peak in FIG. 4 is believed also to be cells of S pneumoniae, but which are […].

penicillin
Mean Zeta Potential for S pneumoniae: −0.3 mV
